Source: patent US20170349593A1, “BTK INHIBITORS” (MERCK SHARP & DOHME CORP., priority 2014, published 2017)

Experiments:
[1] = target: T1, BTK enzyme (recombinant full-length BTK, hBTK) (Homo sapiens, UniProt Q06187); assay: Btk enzyme activity assay (LANCE TR-FRET); format: biochemical; details: 50 pM hBTK, 25 μM ATP, 60 minute compound and enzyme incubation, concentration range 1 μM to 0.017 nM, read-out: BTK binding IC50
T1 construct: recombinant protein from baculovirus-transfected S 19 cells: full-length BTK, 6 HIS-tag cleaved; 6 HIS-tag (cleaved yes); made in house

[2] = test system: adenosine uptake into HeLa cells; assay: [3H]Adenosine uptake assay; format: cell-based; details: Homo sapiens; accumulation of [3H]adenosine into HeLa cells; concentration range 10 μM to 0.032 nM; read-out: ADU inhibition IC50
Method: Compounds are also screened in an adenosine uptake functional cellular assay using the protocol described below:
Adenosine uptake activity was determined by monitoring the accumulation of tritiated adenosine into HeLa cells (ATCC catalog #CCL-2) using a PMT-based radiometric detection instrument. In this assay, the potency (IC50) of each compound was determined from a ten point (1:3 serial dilution; final compound concentration range in assay from 10 μM to 0.032 nM) titration curve using the following outlined procedure. To each well of a 96-well CytoStar-T scintillating microplate (Perkin Elmer Catalog #RPNQ0163), 25 000 HeLa cells in 100 μL of growth medium comprising: Minimum Essential Media (Life Technologies Catalog #11095-080)+10% (v/v) foetal bovine serum (FBS; Sigma Aldrich Catalog #F2442) was added. These cells were incubated overnight at 37° C. in a humidified atmosphere with 5% (v/v) CO2. After this time the growth medium was removed and replaced with 40 μL assay medium comprising: Hanks balanced salts solution (HBSS; Thermo Fisher Catalog # SH30268.01)+5% (v/v) FBS. Compound stock solutions in DMSO were diluted in assay medium to 2.5× final compound concentration maintaining a constant DMSO concentration of 0.25% (v/v). 40 μL of compound in assay medium was dispensed into individual wells of the Cytostar-T plates and the plates were incubated for 30 minutes under ambient laboratory conditions. Following this incubation, 20 μL of 500 nM [^3H] adenosine (American Radiolabeled Chemicals Inc. Catalog #ART0287) in assay medium was added and incubated for a further 60 minutes under ambient laboratory conditions. The amount of radiolabel accumulation was then determined using a Perkin Elmer Topcount NXT microplate reader. In brief, HeLa cells adhere to the bottom of the Cytostar-T plate, uptake of [^3H]adenosine into these cells brings the radiolabel into sufficient proximity to excite the scintillant in the base of the plates. These events are captured by single PMT, time-resolved coincidence counting. IC50 values were determined by 4 parameter robust fit of counts per second values vs. (Log10)) compound concentrations.

T1 sequence (Q06187 whole entry): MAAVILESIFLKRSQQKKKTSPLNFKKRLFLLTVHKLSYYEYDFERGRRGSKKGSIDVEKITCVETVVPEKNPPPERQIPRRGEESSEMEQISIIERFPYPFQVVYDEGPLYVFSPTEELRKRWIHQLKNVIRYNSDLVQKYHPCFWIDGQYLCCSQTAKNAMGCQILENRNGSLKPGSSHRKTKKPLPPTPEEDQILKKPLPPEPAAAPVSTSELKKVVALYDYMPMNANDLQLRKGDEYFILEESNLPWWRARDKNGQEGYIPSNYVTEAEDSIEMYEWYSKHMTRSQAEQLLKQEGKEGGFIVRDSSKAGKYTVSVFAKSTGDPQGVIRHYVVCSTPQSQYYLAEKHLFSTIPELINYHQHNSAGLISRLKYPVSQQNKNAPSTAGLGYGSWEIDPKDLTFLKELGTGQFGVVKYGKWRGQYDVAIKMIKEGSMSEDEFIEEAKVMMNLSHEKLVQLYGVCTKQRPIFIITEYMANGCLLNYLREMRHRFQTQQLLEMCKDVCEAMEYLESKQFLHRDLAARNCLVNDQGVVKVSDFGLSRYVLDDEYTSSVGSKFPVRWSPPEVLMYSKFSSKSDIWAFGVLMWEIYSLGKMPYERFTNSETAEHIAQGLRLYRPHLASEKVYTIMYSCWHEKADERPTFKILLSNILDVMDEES

CCOc1cc(C(=O)Nc2cc(C(F)(F)F)ccn2)ccc1-c1nc([C@@H]2CC[C@H](C(F)(F)F)N(C(=O)C3CC3)C2)n2ccnc(N)c12 [Example 1, 4-{8-amino-3-[(3R,6R)-1-(cyclopropylcarbonyl)-6-(trifluoromethyl)piperidin-3-yl]imidazo[1,5-a]pyrazin-1-yl}-3-ethoxy-N-[4-(trifluoromethyl)pyridin-2-yl]benzamide]
IC50 [1]: 347 nM
IC50 [2]: 918 nM

CCOc1cc(C(=O)Nc2cc(C(F)(F)F)ccn2)ccc1-c1nc([C@H]2CC[C@H](C(F)(F)F)N(C(=O)C3CC3)C2)n2ccnc(N)c12 [Example 2, 4-{8-amino-3-[(3S,6R)-1-(cyclopropylcarbonyl)-6-(trifluoromethyl)piperidin-3-yl]imidazo[1,5-a]pyrazin-1-yl}-3-ethoxy-N-[4-(trifluoromethyl)pyridin-2-yl]benzamide]
IC50 [1]: 1.38 nM
IC50 [2]: 918 nM

CCOc1cc(C(=O)Nc2cc(C(F)(F)F)ccn2)ccc1-c1nc([C@H]2CC[C@@H](C(F)(F)F)N(C(=O)C3CC3)C2)n2ccnc(N)c12 [Example 3, 4-{8-amino-3-[(3S,6S)-1-(cyclopropylcarbonyl)-6-(trifluoromethyl)piperidin-3-yl]imidazo[1,5-a]pyrazin-1-yl}-3-ethoxy-N-[4-(trifluoromethyl)pyridin-2-yl]benzamide]
IC50 [1]: 1000 nM
IC50 [2]: 859 nM

CCOc1cc(C(=O)Nc2cc(C(F)(F)F)ccn2)ccc1-c1nc([C@@H]2CC[C@@H](C(F)(F)F)N(C(=O)C3CC3)C2)n2ccnc(N)c12 [Example 4, 4-{8-amino-3-[(3R,6S)-1-(cyclopropylcarbonyl)-6-(trifluoromethyl)piperidin-3-yl]imidazo[1,5-a]pyrazin-1-yl}-3-ethoxy-N-[4-(trifluoromethyl)pyridin-2-yl]benzamide]
IC50 [1]: 39.4 nM
IC50 [2]: 1060 nM

CCOc1cc(C(=O)Nc2cc(C(F)(F)F)n(C)n2)ccc1-c1nc([C@H]2CN(C(=O)C3CC3)[C@@H](C)CO2)n2c(Cl)cnc(N)c12 [Example 5, 4-{8-amino-5-chloro-3-[(2R,5S)-4-(cyclopropylcarbonyl)-5-methylmorpholin-2-yl]imidazo[1,5-a]pyrazin-1-yl}-3-ethoxy-N-[1-methyl-5-(trifluoromethyl)-1H-pyrazol-3-yl]benzamide]
IC50 [1]: 7.14 nM
IC50 [2]: ≥ 10000 nM

CCOc1cc(C(=O)Nc2cc(C(F)(F)F)n(C)n2)ccc1-c1nc([C@H]2CN(C(=O)[C@H](C)O)[C@@H](C)CO2)n2c(Cl)cnc(N)c12 [Example 6, 4-(8-amino-5-chloro-3-{(2R,5S)-4-[(2S)-2-hydroxypropanoyl]-5-methylmorpholin-2-yl}imidazo[1,5-a]pyrazin-1-yl)-3-ethoxy-N-[1-methyl-5-(trifluoromethyl)-1H-pyrazol-3-yl]benzamide]
IC50 [1]: 5.73 nM
IC50 [2]: ≥ 10000 nM

CCOc1cc(C(=O)Nc2cc(C(F)(F)F)ccn2)ccc1-c1nc([C@H]2CN(C(=O)C(C)C)[C@@H](C)CO2)n2c(Cl)cnc(N)c12 [Example 7, 4-{8-amino-5-chloro-3-[(2R,5S)-5-methyl-4-(2-methylpropanoyl)morpholin-2-yl]imidazo[1,5-a]pyrazin-1-yl}-3-ethoxy-N-[4-(trifluoromethyl)pyridin-2-yl]benzamide]
IC50 [1]: 1.67 nM
IC50 [2]: ≥ 10000 nM

CCOc1cc(C(=O)Nc2cc(C(F)(F)F)ccn2)ccc1-c1nc([C@H]2CN(C(=O)C3CC3)[C@@H](C)CO2)n2c(Cl)cnc(N)c12 [Example 8, 4-{8-amino-5-chloro-3-[(2R,5S)-4-(cyclopropylcarbonyl)-5-methylmorpholin-2-yl]imidazo[1,5-a]pyrazin-1-yl}-3-ethoxy-N-[4-(trifluoromethyl)pyridin-2-yl]benzamide]
IC50 [1]: 1.19 nM
IC50 [2]: ≥ 10000 nM

CCc1cnc(N)c2c(-c3ccc(C(=O)Nc4cc(C(F)(F)F)ccn4)cc3OC)nc([C@H]3CN(C(=O)C4CC4)[C@@H](C)CO3)n12 [Example 9, 4-{8-amino-3-[(2R,5S)-4-(cyclopropylcarbonyl)-5-methylmorpholin-2-yl]-5-ethylimidazo[1,5-a]pyrazin-1-yl}-3-methoxy-N-[4-(trifluoromethyl)pyridin-2-yl]benzamide]
IC50 [1]: 3.76 nM
IC50 [2]: 2680 nM

C=Cc1cnc(N)c2c(-c3ccc(C(=O)Nc4cc(C(F)(F)F)ccn4)cc3OC)nc([C@H]3CN(C(=O)C4CC4)[C@@H](C)CO3)n12 [Example 10, 4-{8-amino-3-[(2R,5S)-4-(cyclopropylcarbonyl)-5-methylmorpholin-2-yl]-5-ethenylimidazo[1,5-a]pyrazin-1-yl}-3-methoxy-N-[4-(trifluoromethyl)pyridin-2-yl]benzamide]
IC50 [1]: 0.528 nM
IC50 [2]: 1200 nM

CCOc1cc(C(=O)Nc2cc(C(F)(F)F)ccn2)ccc1-c1nc([C@H]2CN(C(=O)[C@@H](C)O)[C@@H](C)CO2)n2c(Cl)cnc(N)c12 [Example 11, 4-(8-amino-5-chloro-3-{(2R,5S)-4-[(2R)-2-hydroxypropanoyl]-5-methylmorpholin-2-yl}imidazo[1,5-a]pyrazin-1-yl)-3-ethoxy-N-[4-(trifluoromethyl)pyridin-2-yl]benzamide]
IC50 [1]: 1.42 nM
IC50 [2]: 3120 nM

CCOc1cc(C(=O)Nc2cc(C(F)(F)F)ccn2)ccc1-c1nc([C@H]2CN(C(=O)C3(C)CC3)[C@@H](C)CO2)n2c(Cl)cnc(N)c12 [Example 12, 4-(8-amino-5-chloro-3-{(2R,5S)-5-methyl-4-[(1-methylcyclopropyl)carbonyl]morpholin-2-yl}imidazo[1,5-a]pyrazin-1-yl)-3-ethoxy-N-[4-(trifluoromethyl)pyridin-2-yl]benzamide]
IC50 [1]: 1.1 nM
IC50 [2]: ≥ 10000 nM

COc1cc(C(=O)Nc2cc(C(F)(F)F)ccn2)ccc1-c1nc([C@H]2CN(C(=O)[C@H](C)OC)[C@@H](C)CO2)n2c(Cl)cnc(N)c12 [Example 13, 4-(8-amino-5-chloro-3-{(2R,5S)-4-[(2S)-2-methoxypropanoyl]-5-methylmorpholin-2-yl}imidazo[1,5-a]pyrazin-1-yl)-3-methoxy-N-[4-(trifluoromethyl)pyridin-2-yl]benzamide]
IC50 [1]: 3.89 nM
IC50 [2]: 1710 nM

COc1cc(C(=O)Nc2cc(C(F)(F)F)ccn2)ccc1-c1nc([C@H]2CN(C(=O)[C@@H](C)O)[C@@H](C)CO2)n2c(Cl)cnc(N)c12 [Example 14, 4-(8-amino-5-chloro-3-{(2R,5S)-4-[(2R)-2-hydroxypropanoyl]-5-methylmorpholin-2-yl}imidazo[1,5-a]pyrazin-1-yl)-3-methoxy-N-[4-(trifluoromethyl)pyridin-2-yl]benzamide]
IC50 [1]: 2.04 nM
IC50 [2]: 1690 nM

COCC(=O)N1C[C@H](c2nc(-c3ccc(C(=O)Nc4cc(C(F)(F)F)ccn4)cc3F)c3c(N)nccn23)OC[C@H]1CO [Example 56, 4-{8-amino-3-[(2R,5R)-5-(hydroxymethyl)-4-(methoxyacetyl)morpholin-2-yl]imidazo[1,5-a]pyrazin-1-yl}-3-fluoro-N-[4-(trifluoromethyl)pyridin-2-yl]benzamide]
IC50 [1]: 8.81 nM

CS(=O)(=O)CC(=O)N1C[C@H](c2nc(-c3ccc(C(=O)Nc4cc(C(F)(F)F)ccn4)cc3F)c3c(N)nccn23)OC[C@H]1CO [Example 58, 4-(8-amino-3-{(2R,5R)-5-(hydroxymethyl)-4-[(methylsulfonyl)acetyl]morpholin-2-yl}imidazo[1,5-a]pyrazin-1-yl)-3-fluoro-N-[4-(trifluoromethyl)pyridin-2-yl]benzamide]
IC50 [1]: 6.92 nM

C[C@H](O)C(=O)N1C[C@H](c2nc(-c3ccc(C(=O)Nc4cc(C(F)(F)F)ccn4)cc3F)c3c(N)nccn23)OC[C@H]1CO [Example 59, 4-(8-amino-3-{(2R,5R)-5-(hydroxymethyl)-4-[(2S)-2-hydroxypropanoyl]morpholin-2-yl}imidazo[1,5-a]pyrazin-1-yl)-3-fluoro-N-[4-(trifluoromethyl)pyridin-2-yl]benzamide]
IC50 [1]: 12.2 nM

C[C@H]1CO[C@@H](c2nc(-c3ccc(C(=O)Nc4cc(C(F)(F)F)ccn4)cc3F)c3c(N)nccn23)CN1C(=O)C1CC1 [Example 86, 4-{8-amino-3-[(2R,5S)-4-(cyclopropylcarbonyl)-5-methylmorpholin-2-yl]imidazo[1,5-a]pyrazin-1-yl}-3-fluoro-N-[4-(trifluoromethyl)pyridin-2-yl]benzamide]
IC50 [2]: 246 nM

CNC(=O)N1C[C@H](c2nc(-c3ccc(C(=O)Nc4cc(C(F)(F)F)ccn4)c(F)c3)c3c(N)nccn23)CC[C@@H]1C [Example 94, (2S,5R)-5-[8-amino-1-(3-fluoro-4-{[4-(trifluoromethyl)pyridin-2-yl]carbamoyl}phenyl)imidazo[1,5-a]pyrazin-3-yl]-N,2-dimethylpiperidine-1-carboxamide]
IC50 [1]: 0.374 nM
